{"source": "patent US20120196793A1", "about": "“BIOMARKERS FOR IAP INHIBITOR COMPOUNDS” (priority 2009, published 2012)", "key": {"[1]": {"system": "patient-derived tumor models representing both triple negative breast cancer and Non Small Cell Lung Carcinoma (NSCLC)", "assay": "Single agent tumor growth inhibition (% T/C) in patient-derived xenograft models", "type": "in vivo, nude mice", "settings": "18 patient-derived tumor models", "source_text": "Patient-derived xenograft models in which human tumors are surgically resected then directly implanted and subsequently passaged in nude mice are potentially more clinically relevant than cell line models since there is no selective pressure for two dimensional growth on a plastic stratum.\nCompound A has been tested for single agent activity in 18 patient-derived tumor models representing both triple negative breast cancer and Non Small Cell Lung Carcinoma (NSCLC) models. Tumor growth inhibition by Compound A is reported as % T/C (percent growth of tumors in mice treated with Compound A relative to the growth of tumors in Control vehicle treated mice). Complete regression of a tumor would be reported as −100% T/C, tumor stasis (no growth) would be reported as 0% T/C, and no effect would be reported as 100% T/C. […] Stasis (T/C≦40%) has been observed in 25% of primary models assessed."}, "TNFα [2]": {"system": "TNFα", "assay": "Secreted TNFα ELISA in a panel of cancer cell lines before and 24 hours after compound addition", "type": "cell-based, Human", "settings": "sensitive vs insensitive cancer cell lines (3-day viability assays, up to 10 uM)", "experimental": "To test whether the engagement of the TNFα signaling pathway is requisite for single agent activity in vitro, a panel of cancer cell lines is evaluated for sensitivity to Compound A while in parallel, secreted TNFα expression levels are assessed by ELISA before and 24 hours after compound addition. […] Increased basal TNFα levels also positively correlate with sensitivity to Compound A (FIG. 8).\n(§1) On day one, cancer cells are plated into two 96-well, clear, flat bottom plates. All wells in row A contain 200 uL of media. All wells in rows B-G contain 5000 cells per well in 180 ul of RPMI media with 10% FBS. Plates are then incubated overnight for 18 hours at 37 C, 5% CO2. […] TNFα levels in the media are measured using the R&D Quantikine Human TNFα High Sensitivity ELISA assay, catalog number HSTA00D. […] The colorimetric readout is measured on a spectrometer at 490nM within 30 minutes of adding the stop solution. Raw data is normalized to account for background noise, duplicate values are averaged and concentrations are calculated from a standard curve (FIG. 8). […] CTG measures the amount of ATP released from viable cells that can be measured by a luminescent plate reader. Cells with CTG are incubated for ten minutes at room temperature and read on a luminescent plate reader. Raw data is normalized to account for background noise, duplicate values are averaged and percent control growth is calculated."}, "TNFα [3]": {"system": "TNFα", "assay": "TNFα ELISA in SK-OV-3 cells with shRNA knockdown of NFkB pathway nodes", "type": "cell-based, Human", "experimental": "To elucidate this mechanism, nodes of the canonical and non-canonical NFkB pathways and are knocked down and induction of TNFα expression, a marker of NFkB activation, after treatment with the Smac mimetic compound Compound A, is assessed. […] Therefore, tumors with active or functional canonical NFkB signaling, as evidenced by TNFα expression or other markers of active NFkB signaling, are more likely to respond to Compound A.\nas §1, with “one, SKOV” for “one,”, “10% FBS and 1 ug/mL of puromycin.” for “10% FBS.”, “Human TNFalpha” for “Human TNFα”, “at 490 nM” for “at 490nM”, “(FIG. 9).” for “(FIG. 8).”, “reader. […]” for “reader. Raw data is normalized to account for background noise, duplicate values are averaged and percent control growth is calculated.”"}, "[4]": {"system": "MDA-MB-231 breast cancer cell line", "assay": "In vitro induction of TNFα, caspase activation and cell death in tumor cell lines", "type": "cell-based", "settings": "in vitro assays, variety of tumor cell lines including MDA-MB-231"}, "TNFα [5]": {"system": "TNFα", "assay": "TNFα ELISA of tumor lysates from orthotopic MDA-MB-231 xenografts after a single oral dose", "type": "in vivo, mice", "settings": "39 days after tumor cell implantation, mean tumor volume approximately 141 mm3", "experimental": "To assess whether the induction of TNFα observed in the MDA-MB-231 breast tumor cell line translated to an in vivo setting, an experiment is performed in mice harboring orthotopically implanted MBA-MD-231 tumors.\nA single oral dose of Compound A is administered 39 days following tumor cell implantation when mean tumor volumes reached approximately 141 mm3. Tumors are harvested from each animal, lysed, and analyzed by ELISA to determine TNFα concentrations."}}}
{"smiles": "CN[C@@H](C)C(=O)N[C@H](C(=O)N1CCC[C@H]1c1nc(C(=O)c2ccc(F)cc2)cs1)C1CCCCC1", "note": "[Compound A, (S)—N—((S)-1-Cyclohexyl-2-{(S)-2-[4-(4-fluoro-benzoyl)-thiazol-2-yl]-pyrrolidin-1-yl}-2-oxo-ethyl)-2-methylamino-propionamide]", "values": [{"measurement": "range of responses (% T/C)", "setting": "[1]", "value": "from tumor regression to no effect"}, {"measurement": "share of primary models in which stasis (T/C≦40%) was observed", "setting": "[1]", "value": 25, "unit": "%"}, {"measurement": "induction of secreted TNFα", "setting": "TNFα [2]", "value": "induced TNF-alpha in sensitive but not insensitive cancer cell lines"}, {"measurement": "Compound A-mediated induction of TNFα after knockdown of RelB", "setting": "TNFα [3]; SK-OV-3, shRNA-mediated knockdown of RelB (non-canonical NFkB pathway)", "value": "does not impact"}, {"measurement": "Compound A-mediated TNF induction after knockdown of RelA", "setting": "TNFα [3]; SK-OV-3 ovarian carcinoma cell line, shRNA-mediated knockdown of RelA (canonical NFkB pathway)", "value": "ablated TNF induction"}, {"measurement": "induction of TNFα, activation of caspases and subsequent cell death", "setting": "[4]", "value": "induces the induction of TNFα, activation of caspases and subsequent cell death"}, {"measurement": "increase in TNFα in MDA-MB-231 tumor lysates", "setting": "TNFα [5]", "value": "~10", "unit": "fold"}]}
